# According to ChEMBL document CHEMBL4190260, “Antibiofilm potential of 16-oxo-cleroda-3, 13(14) E-diene-15 oic acid and its five new γ-amino γ-lactone derivatives against methicillin resistant Staphylococcus aureus and Streptococcus mutans” (2017):
# Calls of active or inactive are those of the source. No cut-off for these calls is given here.
# Tests used:
# Streptococcus mutans [1] = experiment: Bactericidal activity against Streptococcus mutans ATCC 25175 measured after overnight incubation; format: functional
# Staphylococcus aureus [2] = experiment: Antibacterial activity against methicillin-resistant Staphylococcus aureus ATCC 43300 assessed as delay in bacterial growth at 4 times MIC after 10 mins; format: functional, organism-based
# Streptococcus mutans [3] = experiment: Antibiofilm activity against Streptococcus mutans ATCC 25175 assessed as formation of broken chains at MBIC concentration by uranyl acetate-staining based electron microscopy; format: functional, organism-based
# Streptococcus mutans [4] = experiment: Antibiofilm activity against Streptococcus mutans ATCC 25175 assessed as down-regulation of gtfB gene expression by semi-quantitative PCR analysis; format: functional, organism-based
# Streptococcus mutans [5] = experiment: Antibiofilm activity against Streptococcus mutans ATCC 25175 assessed as down-regulation of gtfC gene expression by semi-quantitative PCR analysis; format: functional, organism-based
# Streptococcus mutans [6] = experiment: Antibacterial activity against Streptococcus mutans ATCC 25175 measured after overnight incubation by two-fold serial dilution method; format: functional
# Streptococcus mutans [7] = experiment: Antibiofilm activity against Streptococcus mutans ATCC 25175 measured after overnight incubation by crystal violet-staining based assay; format: functional
# Staphylococcus aureus [8] = experiment: Antibacterial activity against methicillin-resistant Staphylococcus aureus ATCC 43300 measured after overnight incubation by two-fold serial dilution method; format: functional
# Staphylococcus aureus [9] = experiment: Bactericidal activity against methicillin-resistant Staphylococcus aureus ATCC 43300 measured after overnight incubation; format: functional
# Staphylococcus aureus [10] = experiment: Antibiofilm activity against methicillin-resistant Staphylococcus aureus ATCC 43300 measured after overnight incubation by crystal violet-staining based assay; format: functional
# Klebsiella pneumoniae [11] = experiment: Antibacterial activity against Klebsiella pneumoniae ATCC 13882 measured after overnight incubation by two-fold serial dilution method; format: functional
# Staphylococcus aureus [12] = experiment: Bacteriostatic activity against methicillin-resistant Staphylococcus aureus ATCC 43300 assessed as log reduction in colony forming units at 15 to 20 ug/ml after 24 hrs; format: functional, organism-based
# Streptococcus mutans [13] = experiment: Bacteriostatic activity against Streptococcus mutans ATCC 25175 assessed as log reduction in colony forming units at 12 to 16 ug/ml after 24 hrs; format: functional, organism-based
# Staphylococcus aureus [14] = experiment: Antibacterial activity against methicillin-resistant Staphylococcus aureus ATCC 43300 assessed as inhibition of colony formation at 4 to 16 ug/ml measured after 24 hrs; format: functional, organism-based
# Streptococcus mutans [15] = experiment: Antibacterial activity against Streptococcus mutans ATCC 25175 measured assessed as inhibition of colony formation at 5 to 20 ug/ml after 24 hrs; format: functional, organism-based
# Staphylococcus aureus [16] = experiment: Antibacterial activity against methicillin-resistant Staphylococcus aureus ATCC 43300 assessed as reduction in bacterial viability at 4 to 16 ug/ml measured after 24 hrs by MTT assay; format: functional
# Streptococcus mutans [17] = experiment: Antibacterial activity against Streptococcus mutans ATCC 25175 measured assessed as reduction in bacterial viability at 5 to 20 ug/ml after 24 hrs by MTT assay; format: functional
# Streptococcus mutans [18] = experiment: Antibacterial activity against Streptococcus mutans ATCC 25175 assessed as log reduction in bacterial count at 10 ug/ml measured after 24 hrs relative to control; format: functional
# Staphylococcus aureus [19] = experiment: Antibacterial activity against methicillin-resistant Staphylococcus aureus ATCC 43300 assessed as log reduction in bacterial count at 8 ug/ml measured after 24 hrs; format: functional
# Streptococcus mutans [20] = experiment: Antibiofilm activity against Streptococcus mutans ATCC 25175 assessed as disruption of biofilm at 10 to 12 ug/ml by fluorescence microscopy; format: functional, organism-based
# Staphylococcus aureus [21] = experiment: Antibiofilm activity against methicillin-resistant Staphylococcus aureus ATCC 43300 assessed as disruption of biofilm at 10 to 12 ug/ml by fluorescence microscopy; format: functional, organism-based
# Staphylococcus aureus [22] = experiment: Antibiofilm activity against methicillin-resistant Staphylococcus aureus ATCC 43300 assessed as formation of oviod cells at MBIC concentration by uranyl acetate-staining based electron microscopy; format: functional, organism-based
# Staphylococcus aureus [23] = experiment: Antibiofilm activity against methicillin-resistant Staphylococcus aureus ATCC 43300 assessed as formation of broken chains at MBIC concentration by uranyl acetate-staining based electron microscopy; format: functional, organism-based
# Streptococcus mutans [24] = experiment: Antibiofilm activity against Streptococcus mutans ATCC 25175 assessed as formation of oviod cells at MBIC concentration by uranyl acetate-staining based electron microscopy; format: functional, organism-based
# Staphylococcus aureus [25] = experiment: Antibacterial activity against methicillin-resistant Staphylococcus aureus ATCC 43300 assessed as reduction in acid production at 0.5 times MIC and MIC measured up to 24 hrs; format: functional, organism-based
# Streptococcus mutans [26] = experiment: Antibacterial activity against Streptococcus mutans ATCC 25175 assessed as reduction in acid production at 0.5 times MIC and MIC measured up to 24 hrs; format: functional, organism-based
# Staphylococcus aureus [27] = experiment: Antibacterial activity against methicillin-resistant Staphylococcus aureus ATCC 43300 assessed as delay in bacterial growth at MIC after 10 mins; format: functional, organism-based
# Staphylococcus aureus [28] = experiment: Antibacterial activity against methicillin-resistant Staphylococcus aureus ATCC 43300 assessed as delay in bacterial growth at 2 times MIC after 10 mins; format: functional, organism-based
# Streptococcus mutans [29] = experiment: Antibacterial activity against Streptococcus mutans ATCC 25175 assessed as time delay in bacterial growth at MIC, 2 times MIC and 4 times MIC; format: functional
# Staphylococcus aureus [30] = experiment: Potency index, ratio of 6 amino penicillinic acid MIC to test compound MIC for methicillin-resistant Staphylococcus aureus ATCC 43300; format: functional
# Streptococcus mutans [31] = experiment: Antibiofilm activity against Streptococcus mutans ATCC 25175 assessed as down-regulation of luxS gene expression by semi-quantitative PCR analysis; format: functional, organism-based
# Staphylococcus aureus [32] = experiment: Antibiofilm activity against methicillin-resistant Staphylococcus aureus ATCC 43300 assessed as down-regulation of IcaA gene expression by semi-quantitative PCR analysis; format: functional, organism-based
# Staphylococcus aureus [33] = experiment: Potency index, ratio of cefixime MIC to test compound MIC for methicillin-resistant Staphylococcus aureus ATCC 43300; format: functional
# Streptococcus mutans [34] = experiment: Potency index, ratio of cefixime MIC to test compound MIC for Streptococcus mutans ATCC 25175; format: functional
# Streptococcus mutans [35] = experiment: Potency index, ratio of 6 amino penicillinic acid MIC to test compound MIC for Streptococcus mutans ATCC 25175; format: functional
# Staphylococcus aureus [36] = experiment: Potency index, ratio of gentamycin sulphate MIC to test compound MIC for methicillin-resistant Staphylococcus aureus ATCC 43300; format: functional
# Proteus mirabilis [37] = experiment: Antibacterial activity against Proteus mirabilis ATCC 12453 measured after overnight incubation by two-fold serial dilution method; format: functional
# Klebsiella pneumoniae [38] = experiment: Antibiofilm activity against Klebsiella pneumoniae ATCC 13882 measured after overnight incubation by crystal violet-staining based assay; format: functional
# Proteus mirabilis [39] = experiment: Antibiofilm activity against Proteus mirabilis ATCC 12453 measured after overnight incubation by crystal violet-staining based assay; format: functional
# Proteus mirabilis [40] = experiment: Antibiofilm activity against Proteus mirabilis ATCC 12453 at >= 50 ug/ml measured after overnight incubation by crystal violet-staining based assay; format: functional, organism-based
# Klebsiella pneumoniae [41] = experiment: Antibiofilm activity against Klebsiella pneumoniae ATCC 13882 at >= 50 ug/ml measured after overnight incubation by crystal violet-staining based assay; format: functional, organism-based
smiles,measurement,setting,value
CC1=CCC[C@@H]2[C@@](C)(CC/C(C=O)=C\C(=O)O)[C@H](C)CC[C@@]12C,MBC,Streptococcus mutans [1],185 µg/mL
same,Activity,Staphylococcus aureus [2],Active
same,Activity,Streptococcus mutans [3],Active
same,Activity,Streptococcus mutans [4],Active
same,Activity,Streptococcus mutans [5],Active
same,MIC,Streptococcus mutans [6],20 µg/mL
same,Activity,Streptococcus mutans [7],92.06%
same,MBIC,Streptococcus mutans [7],20 µg/mL
same,MIC,Staphylococcus aureus [8],16 µg/mL
same,MBC,Staphylococcus aureus [9],95 µg/mL
same,Activity,Staphylococcus aureus [10],94.26%
same,MBIC,Staphylococcus aureus [10],16 µg/mL
same,MIC,Klebsiella pneumoniae [11],inactive
same,Activity,Staphylococcus aureus [12],Active
same,Activity,Streptococcus mutans [13],Active
same,Activity,Staphylococcus aureus [14],Active
same,Activity,Streptococcus mutans [15],Active
same,Activity,Staphylococcus aureus [16],<=90%
same,Activity,Streptococcus mutans [17],<=90%
same,Activity,Streptococcus mutans [18],7.5 - 8 log10CFU/ml
same,Activity,Staphylococcus aureus [19],9 log10CFU/ml
same,Activity,Streptococcus mutans [20],Active
same,Activity,Staphylococcus aureus [21],Active
same,Activity,Staphylococcus aureus [22],Active
same,Activity,Staphylococcus aureus [23],Active
same,Activity,Streptococcus mutans [24],Active
same,Activity,Staphylococcus aureus [25],Active
same,Activity,Streptococcus mutans [26],Active
same,Activity,Staphylococcus aureus [27],Active
same,Activity,Staphylococcus aureus [28],Active
same,Time,Streptococcus mutans [29],>=8 hr
same,Ratio,Staphylococcus aureus [30],5
same,Activity,Streptococcus mutans [31],Active
same,Activity,Staphylococcus aureus [32],Active
same,Ratio,Staphylococcus aureus [33],5
same,Ratio,Streptococcus mutans [34],5
same,Ratio,Streptococcus mutans [35],5
same,Ratio,Staphylococcus aureus [36],5
CN[C@@H]1[C@@H](O)[C@@H](O[C@@H]2[C@@H](O)[C@H](O[C@H]3O[C@H](CN)CC[C@H]3N)[C@@H](N)C[C@H]2N)OC[C@]1(C)O.O=S(=O)(O)O,MIC,Streptococcus mutans [6],10 µg/mL
same,Activity,Streptococcus mutans [7],76.42%
same,MBIC,Streptococcus mutans [7],10 µg/mL
same,MIC,Proteus mirabilis [37],6.25 µg/mL
same,MIC,Staphylococcus aureus [8],135 µg/mL
same,Activity,Staphylococcus aureus [10],90.8%
same,MBIC,Staphylococcus aureus [10],150 µg/mL
same,MIC,Klebsiella pneumoniae [11],3 µg/mL
same,Activity,Klebsiella pneumoniae [38],89.92%
same,MBIC,Klebsiella pneumoniae [38],3 µg/mL
same,Activity,Proteus mirabilis [39],89.22%
same,MBIC,Proteus mirabilis [39],6.25 µg/mL
CC1(C)S[C@@H]2[C@H](N)C(=O)N2[C@H]1C(=O)O,MIC,Streptococcus mutans [6],70 µg/mL
same,Activity,Streptococcus mutans [7],29.31%
same,MBIC,Streptococcus mutans [7],7 µg/mL
same,MIC,Proteus mirabilis [37],35 µg/mL
same,MIC,Staphylococcus aureus [8],135 µg/mL
same,Activity,Staphylococcus aureus [10],60.46%
same,MBIC,Staphylococcus aureus [10],150 µg/mL
same,MIC,Klebsiella pneumoniae [11],35 µg/mL
same,Activity,Klebsiella pneumoniae [38],68.9%
same,MBIC,Klebsiella pneumoniae [38],35 µg/mL
same,Activity,Proteus mirabilis [39],89.2%
same,MBIC,Proteus mirabilis [39],35 µg/mL
CC1=CCC[C@@H]2[C@@](C)(CC/C(C)=C/C(=O)O)[C@H](C)CC[C@@]12C,MIC,Streptococcus mutans [6],inactive
CC1=CCC[C@@H]2[C@@](C)(CCC3=CC(=O)OC3Nc3cccc(F)c3)[C@H](C)CC[C@@]12C (mixture of isomers),MIC,Streptococcus mutans [6],60 µg/mL
same,Activity,Streptococcus mutans [7],73.17%
same,MBIC,Streptococcus mutans [7],55 µg/mL
same,MIC,Proteus mirabilis [37],125 µg/mL
same,MIC,Staphylococcus aureus [8],60 µg/mL
same,Activity,Staphylococcus aureus [10],83.12%
same,MIC,Klebsiella pneumoniae [11],inactive
same,Activity,Proteus mirabilis [39],68.75%
same,MBIC,Proteus mirabilis [39],110 µg/mL
same,Activity,Proteus mirabilis [40],Active
same,Activity,Klebsiella pneumoniae [41],Active
CC1=CCC[C@@H]2[C@@](C)(CCC3=CC(=O)OC3Nc3ccccc3F)[C@H](C)CC[C@@]12C (mixture of isomers),MIC,Streptococcus mutans [6],50 µg/mL
same,Activity,Streptococcus mutans [7],69.05%
same,MBIC,Streptococcus mutans [7],45 µg/mL
same,MIC,Proteus mirabilis [37],125 µg/mL
same,MIC,Staphylococcus aureus [8],45 µg/mL
same,Activity,Staphylococcus aureus [10],76.25%
same,MIC,Klebsiella pneumoniae [11],inactive
same,Activity,Proteus mirabilis [39],62.5%
same,MBIC,Proteus mirabilis [39],90 µg/mL
same,Activity,Proteus mirabilis [40],Active
same,Activity,Klebsiella pneumoniae [41],Active
CC1=CCC[C@@H]2[C@@](C)(CCC3=CC(=O)OC3Nc3ccc(-c4ccc(NC5OC(=O)C=C5CC[C@@]5(C)[C@H](C)CC[C@@]6(C)C(C)=CCC[C@H]56)c(C)c4)cc3C)[C@H](C)CC[C@@]12C (mixture of isomers),MIC,Streptococcus mutans [6],inactive
CC1=CCC[C@@H]2[C@@](C)(CCC3=CC(=O)OC3Nc3ccc(F)cc3)[C@H](C)CC[C@@]12C (mixture of isomers),MIC,Streptococcus mutans [6],inactive
C=CC1=C(C(=O)O)N2C(=O)[C@@H](NC(=O)/C(=N\OCC(=O)O)c3csc(N)n3)[C@H]2SC1 [CEFIXIME],MIC,Streptococcus mutans [6],40 µg/mL
same,Activity,Streptococcus mutans [7],96.06%
same,MBIC,Streptococcus mutans [7],40 µg/mL
same,MIC,Proteus mirabilis [37],40 µg/mL
same,MIC,Staphylococcus aureus [8],82 µg/mL
same,Activity,Staphylococcus aureus [10],73.5%
same,MBIC,Staphylococcus aureus [10],82 µg/mL
same,MIC,Klebsiella pneumoniae [11],40 µg/mL
same,Activity,Klebsiella pneumoniae [38],94.78%
same,MBIC,Klebsiella pneumoniae [38],40 µg/mL
same,Activity,Proteus mirabilis [39],72.6%
same,MBIC,Proteus mirabilis [39],40 µg/mL
